Patent publication US20170234881A1, “METHODS OF DIAGNOSING AND TREATING CANCER” (INSERM ( INSTITUT NATIONAL DE LA SANTÉ ET DE LA RECHERCHE …, priority 2014, published 2017)

Experiments:
[1] = test system: TS/A tumors; assay: Growth of TS/A tumors implanted s.c. into mice; format: in vivo; conditions: after 13 days, s.c. every day, Tam 56 mg/kg or DDA 20 mg/kg alone
Procedure: FIG. 2. OCDO is a tumor promoter in vitro and in vivo and its inhibition contributes to the anti-tumor effects of Tam and DDA. (A, B) Histograms representing the effect of OCDO or 17β-estrogen (E2) on MCF7 (A) and TS/A (B) cell proliferation after 24 h treatment using a colorimetric immunoassay measuring BrDU incorporation in DNA (C, D) Histogram representing the effect of OCDO on MCF7 (C) and TS/A (D) cell invasion. Data are the mean of three separate experiments (±s.e.m), *P<0.05, **P<0.01, ***P<0.001 (Student's t-test). (E, F) Mice were implanted s.c. with MCF7 (E) or TS/A (F) cells and animals (8 per group) were treated s.c. every day starting on the day of implantation with either the solvent vehicle or OCDO (16 μg/kg for MCF7 or 50 μg/kg for TS/A). Animals were monitored for tumour growth twice a week. The data are representative of three independent experiments. The mean tumor volume±s.e.m is shown, *P<0.05, **P<0.01, ***P<0.001 (analysis of variance (ANOVA), Dunnett's post test). (G) Mean (±s.e.m) of Ki67 positive cell number determined from IHC staining of MCF7 tumor sections from (E), n=8, *P<0.05 (Student's t-test) using HistoQuant, Pannoramic Viewer (3DHistech). (H) Representative Ki67 staining of TS/A tumor sections from (F) showing increased staining in OCDO-treated tumor compared with control-treated tumor. (I, J, K). Murine E0771(I), or human MDA-MB231 (J) or MDA-MB468 (K) cells implanted s.c. into mice (8 per group) and animals were treated s.c. with either the solvent vehicle or OCDO (16 μg/kg for MDA-MB-231 and MDA-MB-468 or 50 μg/kg for E0771). The data are representative of two independent experiments. Statistical analysis was performed as in E and F. (L) Mice were implanted s.c. with TS/A cells and animals (8 per group) were treated s.c. every day with either the solvent vehicle, OCDO (50 μg/kg), Tam (56 mg/kg), DDA (20 mg/kg) or the combination of Tam (56 mg/kg) +OCDO (50 μg/kg) or DDA (20 mg/kg)+OCDO (50 μg/kg). The data are representative of three independent experiments. Statistical analysis was performed as in E and F.
Exponentially growing MCF7, ShMCF7, E0771, MDA-MB231, MDA-MB468 and TS/A cells were collected, washed twice in PBS and resuspended in PBS. TS/A and E9771 tumours were prepared by subcutaneous transplantation of 35×10^3 cells or 3×10^5 cells respectively in 100 μl PBS into the flank of BALB/c or C57B16 mice. For other tumors, 5 to 10×10^6 cells in 200 μl PBS/matrigel (1/1) were injected into the flank of NMRI nude mice. Animals were treated as indicated in the legends. Animals were examined daily, and body weights were measured twice per week. In all the experiments, the tumor volume was determined by direct measurement with a caliper and was calculated using the formula (width^2×length)/2. Tumors were either frozen in liquid nitrogen or fixed in 10% neutral-buffered formalin and embedded in paraffin for immunohistochemical analysis. Paraffin sections were stained with haematoxylin and eosin for histomorphological analyses. Immunohistochemical staining was done on paraffin-embedded tissue sections, using a specific Ki67 antibody (Dako).
We then assayed the anti-growth effect of Tam or DDA against TS/A tumors in the absence and presence of OCDO. As above, TS/A tumors implanted into immunocompetent mice were treated s.c. every day either with either the solvent vehicle (control), OCDO (50 μg/kg), Tam (56 mg/kg), DDA (20 mg/kg) or the combination of Tam (56 mg/kg)+OCDO (50 μg/kg) or DDA (20 mg/kg) +OCDO (50 μg/kg).

[2] = test system: shHSD2 MCF7 cells; assay: Proliferation of shHSD2 MCF7 cells (BrDU); format: cell-based, human; conditions: sh11HSD2 MCF7 cells, 24 h; OCDO 5 μM; cortisone increasing concentrations
Procedure: FIG. 7. Knock-down of 11βHSD2 decreases cell proliferation, invasion and survival in MCF7 cells as well as tumor growth and OCDO reverses these effects. shC or shHSD2 MCF7 cells were analyzed as followed: (A) The proliferation of sh-C or shHSD2 cells treated or not with OCDO 5 μM 24 h was measured using quantification of DNA BrDU incorporation as described in FIG. 2A. (B) The proliferation of sh-C or shHSD2 cells treated or not with increasing concentration of cortisone for 24 h was measured as in (A). (C) The invasiveness of sh-C or shHSD2 cells treated or not with OCDO 5 μM for 72 h was assayed using matrigel-coated filters. (D) the formation of colony by sh-C or shHSD2 cells treated or not with OCDO 1 μM was quantified as described in FIG. 6F. […] Animals were monitored for tumor growth twice a week. […] (F) Mean (±s.e.m) of Ki67 positive cell number determined from IHC staining of shC or shHSD2 MCF7 tumor sections from (E), n=8, *P<0.05 (Student's t-test) using HistoQuant, Pannoramic Viewer (3DHistech).
MCF7 or HEK293T cells (5×10^6 cells) were transfected with 5 μg of the indicated plasmid using the NEON Transfection System and according to the manufacturer's recommendations. […] Several clones were analyzed by immunoblot analysis and real time RT-qPCR for the knock down of the expression of the protein of interest. […]

| Structure (SMILES) | inhibition of TS/A tumor growth compared with the control group [1] [%] | effect on the inhibition of cell proliferation induced by 11βHSD2 knock-down [2] |
| --- | --- | --- |
| CC/C(=C(\c1ccccc1)c1ccc(OCCN(C)C)cc1)c1ccccc1 [Tam, (Z)-2-[4-(1,2-diphenylbut-1-enyl)phenoxy]-N,N-dimethylethanamine, reference compound] | 31 |  |
| C[C@]12CCC(=O)C=C1CC[C@@H]1[C@@H]2C(=O)C[C@@]2(C)[C@H]1CC[C@]2(O)C(=O)CO [cortisone, reference compound] |  | did not |
| CC(C)CCCC(C)[C@H]1CCC2C3C[C@@H](NCCc4cnc[nH]4)[C@@]4(O)C[C@@H](O)CC[C@]4(C)C3CC[C@@]21C (stereo partly drawn) [DDA, 5-hydroxy-6-[2-(1H-imidazol-4-yl)ethylamino]cholestan-3-ol, reference compound] | 33 |  |
